Results on 1 molecule are retold here after the NIST ThermoML archive (doi:10.1021/je900355h).

For this data set the following is noted: Crystal; visual observation.

Numbers after ± are expanded uncertainties.

With `F[P-](F)(F)(F)(F)F.F[P-](F)(F)(F)(F)F.c1cc[n+](CCCCC[n+]2ccccc2)cc1` [1,1'-(1,5-pentanediyl)bis-pyridinium hexafluorophosphate], the Normal melting temperature is 198.40 ± 1.2 °C.
